T/C data for 14 molecules are collected here from PubChem BioAssay AID256 (DTP/NCI, 2004).

Toxic doses and inconclusive results are not listed.

This test has as its system CD2F1 mice, L1210 leukemia ip, survival T/C. Description: NCI In Vivo Anticancer Drug Screen. Data for tumor model L1210 Leukemia (intraperitoneal) in CD2F1 (CDF1) mice. The settings on record: higher = longer survival. An outline of the steps:
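Ratio T/C, where T is the treated-group value and C the vehicle-dosed control value, from mice implanted with a transplantable tumor.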

[1] abbreviates: endpoint: median survival time, dose: 100.0 mg/kg/injection, schedule: Q01DX009 (ip), vehicle: saline.
Setting [2] is: endpoint: mean survival time, dose: 100.0 mg/kg/injection, schedule: Q04DX003 (ip), vehicle: saline with Tween-80.
Setting [3] is: endpoint: mean survival time, dose: 200.0 mg/kg/injection, schedule: Q04DX003 (ip), vehicle: saline with Tween-80.
The mark [4] stands for this setting: endpoint: mean survival time, dose: 100.0 mg/kg/injection, schedule: Q04DX002 (ip), vehicle: saline with Tween-80.
Where [5] appears, read: endpoint: mean survival time, dose: 200.0 mg/kg/injection, schedule: Q04DX002 (ip), vehicle: saline with Tween-80.
The mark [6] stands for this setting: endpoint: mean survival time, dose: 400.0 mg/kg/injection, schedule: Q04DX002 (ip), vehicle: saline with Tween-80.

On to `C=C1C(=O)OC2CC(C)C3C4OC4C(O)C3(C)C(O)C12` (stereo not given), for which the T/C is, setting by setting: (endpoint: median survival time, dose: 3.12 mg/kg/injection, schedule: Q01DX009 (ip), vehicle: saline) 97 % of control; (endpoint: median survival time, dose: 6.25 mg/kg/injection, schedule: Q01DX009 (ip), vehicle: saline) 113 % of control; (endpoint: median survival time, dose: 12.5 mg/kg/injection, schedule: Q01DX009 (ip), vehicle: saline) 101 % of control; (endpoint: median survival time, dose: 25.0 mg/kg/injection, schedule: Q01DX009 (ip), vehicle: saline) 107 % of control; (endpoint: median survival time, dose: 50.0 mg/kg/injection, schedule: Q01DX009 (ip), vehicle: saline) 109 % of control; under setting [1], 124 % of control.

`C1N2CN3CN1CN(C2)C3.[Cl][Pt+2][Cl]`: the T/C runs as follows: (endpoint: mean survival time, dose: 18.75 mg/kg/injection, schedule: Q04DX003 (ip), vehicle: saline) 103 % of control; (endpoint: mean survival time, dose: 37.5 mg/kg/injection, schedule: Q04DX003 (ip), vehicle: saline) 106 % of control; (endpoint: mean survival time, dose: 75.0 mg/kg/injection, schedule: Q04DX003 (ip), vehicle: saline) 101 % of control; (endpoint: mean survival time, dose: 150.0 mg/kg/injection, schedule: Q04DX003 (ip), vehicle: saline) 107 % of control; (endpoint: mean survival time, dose: 300.0 mg/kg/injection, schedule: Q04DX003 (ip), vehicle: saline) 103 % of control.

On to `COc1ccc(/C=C2\OC(=O)C(Cc3cc(Cl)c4c(c3)OCO4)C2(O)C(C)C)cc1` (stereo not given), for which the T/C runs as follows: (endpoint: median survival time, dose: 6.13 mg/kg/injection, schedule: Q01DX005 (ip), vehicle: Klucel (hydroxypropylcellulose) (HPC)) 95 % of control; (endpoint: median survival time, dose: 12.25 mg/kg/injection, schedule: Q01DX005 (ip), vehicle: Klucel (hydroxypropylcellulose) (HPC)) 96 % of control; (endpoint: median survival time, dose: 24.5 mg/kg/injection, schedule: Q01DX005 (ip), vehicle: Klucel (hydroxypropylcellulose) (HPC)) 103 % of control; (endpoint: median survival time, dose: 49.0 mg/kg/injection, schedule: Q01DX005 (ip), vehicle: Klucel (hydroxypropylcellulose) (HPC)) 91 % of control.

In the case of `OC1=C2CCCCCC2=[N+]2CCCCC2C1` (stereo not given), the T/C reads like this: under setting [2], 95 % of control; under setting [3], 95 % of control.

On to `CC1(C)CC=C(c2ccccc2)OC1c1ccccc1` (stereo not given), for which the T/C was 98 % of control (endpoint: mean survival time, dose: 100.0 mg/kg/injection, schedule: Q04DX002 (ip), vehicle: other); 94 % of control (endpoint: mean survival time, dose: 200.0 mg/kg/injection, schedule: Q04DX002 (ip), vehicle: other); 102 % of control (endpoint: mean survival time, dose: 400.0 mg/kg/injection, schedule: Q04DX002 (ip), vehicle: other).

Turning to `CCCCCCCC(=O)Nc1cc(C(F)(F)F)ccc1Cl`, the T/C was 93 % of control (endpoint: mean survival time, dose: 100.0 mg/kg/injection, schedule: Q01DX009 (ip), vehicle: saline with Tween-80); 96 % of control (endpoint: mean survival time, dose: 200.0 mg/kg/injection, schedule: Q01DX009 (ip), vehicle: saline with Tween-80); 94 % of control (endpoint: mean survival time, dose: 400.0 mg/kg/injection, schedule: Q01DX009 (ip), vehicle: saline with Tween-80).

On to `O=C(NCCCl)C(=O)NCCCl`, for which the T/C was 100 % of control under setting [4], 100 % of control under setting [5] and 100 % of control under setting [6].

On to `CC(=O)c1c(O)c(C)c(O)c2c1OC1=CC(=O)C(C(C)=O)C(=O)C12C` (stereo not given), for which the T/C is, setting by setting: (endpoint: mean survival time, dose: 25.0 mg/kg/injection, schedule: Q01DX009 (ip), vehicle: Klucel (hydroxypropylcellulose) (HPC)) 93 % of control; (endpoint: mean survival time, dose: 50.0 mg/kg/injection, schedule: Q01DX009 (ip), vehicle: Klucel (hydroxypropylcellulose) (HPC)) 93 % of control; (endpoint: mean survival time, dose: 100.0 mg/kg/injection, schedule: Q01DX009 (ip), vehicle: Klucel (hydroxypropylcellulose) (HPC)) 96 % of control.

In the case of `COc1cc(NC(=O)Nc2ccccc2OC)c(OC)cc1Cl`, the T/C reads like this: under setting [4], 90 % of control; under setting [5], 93 % of control; under setting [6], 107 % of control.

Turning to `C=CCC12CCCCC1=CC(=O)CC2` (stereo not given), the T/C by setting is: under setting [2], 97 % of control; under setting [3], 100 % of control; (endpoint: mean survival time, dose: 400.0 mg/kg/injection, schedule: Q04DX003 (ip), vehicle: saline with Tween-80) 102 % of control.

Take `CC1=C(C#[N+][O-])C(C)(C)CCC1`: the T/C is 102 % of control (endpoint: mean survival time, dose: 75.0 mg/kg/injection, schedule: Q01DX001 (ip), vehicle: other); 97 % of control (endpoint: mean survival time, dose: 150.0 mg/kg/injection, schedule: Q01DX001 (ip), vehicle: other); 105 % of control (endpoint: mean survival time, dose: 300.0 mg/kg/injection, schedule: Q01DX001 (ip), vehicle: other).

Consider `CCC1(C)CCC2=C(CCC3C(C)(C(=O)OC)CCCC23C)C1` (stereo not given), for which the T/C is 93 % of control (endpoint: mean survival time, dose: 100.0 mg/kg/injection, schedule: Q01DX001 (ip), vehicle: saline with Tween-80); 89 % of control (endpoint: mean survival time, dose: 200.0 mg/kg/injection, schedule: Q01DX001 (ip), vehicle: saline with Tween-80); 89 % of control (endpoint: mean survival time, dose: 400.0 mg/kg/injection, schedule: Q01DX001 (ip), vehicle: saline with Tween-80).

For `C[C@@]1(CO)[C@H](O)CC[C@@]2(C)[C@H]1CC[C@H]1C[C@@H]3C[C@@]12CC[C@@]3(O)COC(=O)CN`, the T/C (endpoint: median survival time, dose: 0.2 mg/kg/injection, schedule: Q01DX009 (ip), vehicle: saline + alcohol) is 100 % of control; the T/C (endpoint: median survival time, dose: 0.4 mg/kg/injection, schedule: Q01DX009 (ip), vehicle: saline + alcohol) is 106 % of control; the T/C (endpoint: median survival time, dose: 0.8 mg/kg/injection, schedule: Q01DX009 (ip), vehicle: saline + alcohol) was 107 % of control; the T/C (endpoint: median survival time, dose: 1.6 mg/kg/injection, schedule: Q01DX009 (ip), vehicle: saline + alcohol) was 102 % of control; the T/C (endpoint: median survival time, dose: 5.0 mg/kg/injection, schedule: Q03HX027 (ip), vehicle: saline + alcohol) was 101 % of control; the T/C (endpoint: median survival time, dose: 6.25 mg/kg/injection, schedule: Q01DX009 (ip), vehicle: saline + alcohol) is 105 % of control. For the same molecule, the T/C (endpoint: median survival time, dose: 10.0 mg/kg/injection, schedule: Q03HX027 (ip), vehicle: saline + alcohol) is 109 % of control; the T/C (endpoint: median survival time, dose: 12.5 mg/kg/injection, schedule: Q01DX009 (ip), vehicle: saline + alcohol) is 106 % of control; the T/C (endpoint: median survival time, dose: 20.0 mg/kg/injection, schedule: Q03HX027 (ip), vehicle: saline + alcohol) is 116 % of control; the T/C (endpoint: median survival time, dose: 25.0 mg/kg/injection, schedule: Q01DX005 (ip), vehicle: saline) was 112 % of control; the T/C (endpoint: median survival time, dose: 25.0 mg/kg/injection, schedule: Q01DX009 (ip), vehicle: saline + alcohol) is 107 % of control; the T/C (endpoint: median survival time, dose: 36.0 mg/kg/injection, schedule: Q01DX005 (ip), vehicle: saline) is 115 % of control. For the same molecule, the T/C by setting is: (endpoint: median survival time, dose: 36.0 mg/kg/injection, schedule: Q01DX009 (ip), vehicle: saline) 110 % of control; (endpoint: median survival time, dose: 50.0 mg/kg/injection, schedule: Q01DX005 (ip), vehicle: saline) 116 % of control; (endpoint: median survival time, dose: 50.0 mg/kg/injection, schedule: Q01DX009 (ip), vehicle: saline + alcohol) 116 % of control; (endpoint: median survival time, dose: 60.0 mg/kg/injection, schedule: Q01DX005 (ip), vehicle: saline) 116 % of control; (endpoint: median survival time, dose: 60.0 mg/kg/injection, schedule: Q01DX009 (ip), vehicle: saline) 110 % of control; (endpoint: median survival time, dose: 100.0 mg/kg/injection, schedule: Q01DX005 (ip), vehicle: saline) 122 % of control. Also, the T/C under setting [1] was 151 % of control; the T/C (endpoint: median survival time, dose: 166.6 mg/kg/injection, schedule: Q01DX009 (ip), vehicle: saline) was 153 % of control; the T/C (endpoint: median survival time, dose: 12.5 micrograms/kg/injection, schedule: Q01DX009 (ip), vehicle: saline + alcohol) was 103 % of control; the T/C (endpoint: median survival time, dose: 25.0 micrograms/kg/injection, schedule: Q01DX009 (ip), vehicle: saline + alcohol) was 103 % of control; the T/C (endpoint: median survival time, dose: 50.0 micrograms/kg/injection, schedule: Q01DX009 (ip), vehicle: saline + alcohol) was 103 % of control; the T/C (endpoint: median survival time, dose: 100.0 micrograms/kg/injection, schedule: Q01DX009 (ip), vehicle: saline + alcohol) was 101 % of control. Also, under “endpoint: median survival time, dose: 200.0 micrograms/kg/injection, schedule: Q01DX009 (ip), vehicle: saline + alcohol”, the T/C is 102 % of control.

`CC(=O)N(C)N=Nc1ccc(Cl)cc1`: the T/C by setting is: (endpoint: mean survival time, dose: 25.0 mg/kg/injection, schedule: Q04DX003 (ip), vehicle: Klucel (hydroxypropylcellulose) (HPC)) 109 % of control; (endpoint: mean survival time, dose: 50.0 mg/kg/injection, schedule: Q04DX003 (ip), vehicle: Klucel (hydroxypropylcellulose) (HPC)) 105 % of control; (endpoint: mean survival time, dose: 100.0 mg/kg/injection, schedule: Q04DX003 (ip), vehicle: Klucel (hydroxypropylcellulose) (HPC)) 103 % of control; (endpoint: mean survival time, dose: 200.0 mg/kg/injection, schedule: Q04DX003 (ip), vehicle: Klucel (hydroxypropylcellulose) (HPC)) 100 % of control.
